Reference: PubChem BioAssay (NCI)
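Briefly, cells in 96-well plates were exposed to five compound concentrations for 48 h, and endpoints were estimated by linear interpolation. At the GI50, growth is halved. TGI is the concentration that stops growth completely.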

What was measured:
Experiment in all cases: NCI anticancer screen, dose series, 48 h
[1] = tested on: 786-0 renal
[2] = tested on: OVCAR-3 ovarian
[3] = tested on: SNB-75 CNS
[4] = tested on: SK-MEL-5 melanoma
[5] = tested on: NCI-H23 lung
[6] = tested on: UACC-257 melanoma
[7] = tested on: SF-268 CNS
[8] = tested on: UACC-62 melanoma
[9] = tested on: CCRF-CEM leukemia
[10] = tested on: SK-OV-3 ovarian

| SMILES | TGI [1] [µM] | TGI [2] [µM] | TGI [3] [µM] | TGI [4] [µM] | TGI [5] [µM] | TGI [6] [µM] | TGI [7] [µM] | TGI [8] [µM] | TGI [9] [µM] | TGI [10] [µM] | GI50 [1] [µM] | GI50 [2] [µM] | GI50 [10] [µM] | GI50 [4] [µM] | GI50 [5] [µM] | GI50 [6] [µM] | GI50 [7] [µM] | GI50 [8] [µM] | GI50 [3] [µM] | GI50 [9] [µM] |
| --- | --- | --- | --- | --- | --- | --- | --- | --- | --- | --- | --- | --- | --- | --- | --- | --- | --- | --- | --- | --- |
| NC(=S)N/N=C(/CC(=O)c1ccc([N+](=O)[O-])cc1)C(=O)Nc1ncc([N+](=O)[O-])s1 | > 100 | > 100 | > 100 | > 100 | > 100 | > 100 | > 100 | > 100 | > 100 | – | – | – | – | – | – | – | – | – | – | – |
| O=C(CC(=O)N1N=C(n2ccc3ccccc32)CC1c1ccccc1)Nc1cccc(Cl)c1 (stereo unspecified) | > 100 | > 100 | > 100 | – | > 100 | > 100 | > 100 | > 100 | > 100 | > 100 | – | – | – | – | – | – | – | – | – | – |
| Cc1ccc(-n2c3c(c4c(CN5CCCCC5)c(O)ccc42)CCc2ccccc2C3=O)cc1 | > 100 | > 100 | – | > 100 | > 100 | > 100 | > 100 | > 100 | – | > 100 | 33.5 | > 100 | > 100 | > 100 | > 100 | > 100 | > 100 | 97.4 | – | – |
| CC(=O)OC1(C#N)CC2OC1C1C2N1C(=O)c1ccccc1 (stereo unspecified) | > 100 | – | > 100 | > 100 | > 100 | – | > 100 | > 100 | > 100 | > 100 | – | – | – | – | – | – | – | – | – | – |
| Cc1ccc(/C=C(\C#N)n2nnc3cc(Cl)c(Cl)cc32)cc1 | 6 | 12.8 | 9.74 | 6.55 | > 100 | > 100 | > 100 | – | > 100 | 91.5 | 2.46 | 2.93 | 3.69 | 2.44 | 3.36 | 2.95 | 3.66 | – | 1.57 | 1.32 |
| COC(=O)[C@]12CC[C@@H](C)[C@H](C)[C@@H]1C1=CC[C@@H]3[C@@]4(C)C[C@@H](OC(=O)c5ccco5)[C@H](O)[C@@](C)(CO)[C@@H]4[C@H](O)C[C@@]3(C)[C@]1(C)CC2 | 4.46 | 4.73 | 11.7 | 4.09 | 6.66 | 7.55 | 14.2 | – | 5.77 | 11.9 | 2.1 | 2.19 | 3.95 | 1.99 | 2.42 | 2.87 | 3.26 | – | 2.38 | 2.41 |
| CC(C)c1cc(C(C)C)c(S(=O)(=O)NN)c(C(C)C)c1 | > 100 | > 100 | > 100 | > 100 | > 100 | > 100 | > 100 | > 100 | – | – | – | – | – | – | – | – | – | – | – | – |
| CCOC(=O)CC(=O)ON(C)C(=O)Cc1ccccc1 | > 100 | > 100 | – | > 100 | > 100 | > 100 | > 100 | > 100 | > 100 | > 100 | – | – | – | – | – | – | – | – | – | – |
| C=CCC(C(=O)OC)C1(C(=O)OC)c2[nH]c3ccccc3c2CCN1Cc1ccccc1 (stereo unspecified) | > 100 | > 100 | > 100 | > 100 | > 100 | – | > 100 | > 100 | > 100 | > 100 | – | – | – | – | – | – | – | – | – | – |
| COc1ccc(/C=C2\N=C(c3ccccc3)OC2=O)c(OCc2ccccc2)c1 | 34.8 | 48.4 | – | 52.2 | – | – | > 100 | 50 | 50.2 | – | – | – | – | – | – | – | – | – | – | – |
| N=C(N)n1ncc(Cl)c(Cl)c1=O | 7.02 | 3.31 | 9.24 | 15.2 | 5.06 | 4.66 | 9.34 | 5.76 | – | 32 | – | – | – | – | – | – | – | – | – | – |
| CC(=O)CC(=O)CCCC(=O)Nc1ccc(Cl)cc1C | > 100 | > 100 | – | > 100 | > 100 | > 100 | > 100 | > 100 | > 100 | > 100 | – | – | – | – | – | – | – | – | – | – |
| CC1=C(C(=O)Nc2cccc(C(F)(F)F)c2)C(c2ccc(O)cc2)C(C(=O)Nc2cccc(C(F)(F)F)c2)=C(C)N1 | 35.8 | 31.8 | 63.9 | 33.6 | 35.8 | 36 | > 100 | – | 66.4 | 83.4 | – | – | – | – | – | – | – | – | – | – |
| O=C(NCCCN1CCN(CCCNC(=O)c2cnc3ccccc3n2)CC1)c1cnc2ccccc2n1 | > 100 | > 100 | > 100 | > 100 | – | > 100 | > 100 | > 100 | > 100 | > 100 | – | – | – | – | – | – | – | – | – | – |
| O=[N+]([O-])c1cccc(C2SCc3nc4ccccc4n32)c1 (stereo unspecified) | > 100 | – | – | 52.8 | > 100 | > 100 | > 100 | > 100 | > 100 | > 100 | – | – | – | – | – | – | – | – | – | – |
| Cc1ccc2nc3c(Cl)cc(=O)cc-3sc2c1 | 35.7 | 10.6 | 57.7 | 30.8 | – | 46.6 | 68.1 | 31.8 | 19.8 | – | – | – | – | – | – | – | – | – | – | – |
| COc1cc2cc3c4c(cc(OC)c(OC)c4c2cc1OC)CCN3C(=O)CCCC(=O)O | > 100 | > 100 | – | > 100 | > 100 | > 100 | > 100 | > 100 | > 100 | > 100 | – | – | – | – | – | – | – | – | – | – |
| Fc1ccc(-c2nc(-c3nc4ccc(Cl)cc4[nH]3)cc3c2[nH]c2ccccc23)cc1 | 18.7 | 6.87 | – | 15.4 | 21.1 | 6.62 | 17.7 | 6.9 | 20.3 | 24.6 | 5.71 | 2.74 | 7.43 | 3.52 | 3.66 | 2.4 | 3.66 | 2.28 | – | 3.37 |
| C/C(=N\NC(=O)CC(=O)Nc1ccc(C)cc1)c1cc2ccccc2oc1=O | > 100 | > 100 | 76.6 | > 100 | > 100 | > 100 | – | > 100 | > 100 | > 100 | – | – | – | – | – | – | – | – | – | – |
| CCc1cccc(C(C)CC)c1N=C(NC(=O)c1ccccc1C(=O)NC(=Nc1c(CC)cccc1C(C)CC)SC)SC (stereo unspecified) | > 100 | > 100 | – | – | > 100 | > 100 | > 100 | 53.5 | > 100 | > 100 | – | – | – | – | – | – | – | – | – | – |
